# Target: T1, recombinant hDHFR (human dihydrofolate reductase) (Homo sapiens, UniProt P00374)
# T1 construct: gene DHFR
# T1 sequence (P00374 1-187): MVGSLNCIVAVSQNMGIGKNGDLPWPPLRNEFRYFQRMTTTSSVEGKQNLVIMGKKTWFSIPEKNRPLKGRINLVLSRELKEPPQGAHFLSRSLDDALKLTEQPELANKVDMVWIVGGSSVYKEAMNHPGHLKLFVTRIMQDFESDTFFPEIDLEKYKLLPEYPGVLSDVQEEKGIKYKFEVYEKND
# Experiment: in vitro DHFR enzyme activity assay, dose-response
# Assay type: biochemical
smiles,measurement,value
CCc1nc(N)nc(N)c1-c1cc(Cl)cc(Cl)c1 [WCDD114],IC50,141 nM
